Calls of active or inactive are those of the source. No rule for the calls is given here.

The assay has as its target Influenza A virus M2 proton channel (A/TW/4845/1999 H1N1). Nature of the assay: NMR binding screen, influenza A virus M2 proton channel, Kd (AID 1549). Particulars: M2 protein.
As to `CC(=O)N1CC2(C)CN(C(C)=O)CC(C)(C1)C2O` (stereo not drawn), the Kd is > 4 mM (inactive).
The same measure for `COc1ccc(-c2cc(=O)c3c(OC)c(OC)c(OC)c(OC)c3o2)cc1OC`: > 4 mM (inactive).
With `OCC1CCN(Cc2ccccc2)CC1`, the Kd was > 4 mM (inactive).
To `COc1cc(C(C)=O)cc(OC)c1O` belongs > 4 mM (inactive); to `CC(=O)Nc1ccc(N2CCOCC2)cc1`, > 4 mM (inactive).
The same measure for `O=C(CO)N/N=C/c1ccccc1F`: > 4 mM (inactive); for `COC(=O)[C@]1(C)CC[C@]2(C)CC[C@]3(C)C4=CC=C5C(=CC(=O)C(O)=C5C)[C@]4(C)CC[C@@]3(C)[C@@H]2C1`: > 4 mM (inactive); for `CC(C)=CCC/C(C)=C/CC/C(C)=C/CC/C(C)=C/CC/C(C)=C/CC/C(C)=C/CC/C(C)=C/CC/C(C)=C/CC/C(C)=C/CO`: > 4 mM (inactive).
To `O=C(O[C@@H]1Cc2c(O)cc(O)cc2O[C@@H]1c1cc(=O)c(O)c2c(O)c(O)cc([C@H]3Oc4cc(O)cc(O)c4C[C@H]3O)c2c1)c1cc(O)c(O)c(O)c1` belongs > 4 mM (inactive); to `CN(C)Cc1c(N)cccc1O`, > 4 mM (inactive).
With `COc1cc(/C=C/C(=O)O)cc(OC)c1OC`, the Kd is > 4 mM (inactive).
The same measure for `COC(=O)C1=CO[C@@H](O[C@@H]2O[C@H](CO)[C@@H](O)[C@H](O)[C@H]2O)[C@@H]2[C@@H](C)[C@@H](O)C[C@H]12`: > 4 mM (inactive).
To `CNc1ccccc1C(=O)O` belongs > 4 mM (inactive); to `CC1CCC(N2CCN(c3ncccn3)CC2)CC1` (stereo not drawn), > 4 mM (inactive); to `CN1CCC(NC(=O)Cc2c(F)cccc2Cl)CC1`, > 4 mM (inactive).
To `Cc1cc(C)n(/N=C\c2cccs2)c(=O)c1C(N)=O` belongs > 4 mM (inactive).
Take `COc1ccc(-c2nnc(-c3ccc(N)cc3)o2)cc1`: the Kd was > 4 mM (inactive).
With `COc1cccc(S(=O)(=O)Nc2cccnc2)c1`, the Kd was > 4 mM (inactive).
To `O=C1C2CCCCC2C(=O)N1c1ccc(O)cc1` (stereo not drawn) belongs > 4 mM (inactive).
Consider `COC(=O)C1[C@H]2C[C@H]3c4[nH]c5ccccc5c4CCN3C[C@@H]2CC[C@@H]1O` (stereo partly drawn), for which the Kd was > 4 mM (inactive).
The same measure for `O=C(Nc1ccon1)c1csc2c1CCCC2`: > 4 mM (inactive); for `O=C(O)Cn1cc(C(=O)C2CC2)c2ccccc21`: > 4 mM (inactive); for `O=c1sc2ccccc2n1CN1CCOCC1`: > 4 mM (inactive).
The same measure for `O=C(NCC1CCCCC1)c1ccco1`: > 4 mM (inactive).
With `CC(=O)NC(=S)Nc1ccc(S(N)(=O)=O)cc1`, the Kd was > 4 mM (inactive).
To `COc1ccc(-c2oc3ccccc3c(=O)c2O)cc1OC` belongs > 4 mM (inactive); to `Cc1cc(C(=O)NN2CCOCC2)c(C)o1`, > 4 mM (inactive); to `O=C(O)C1=C[C@@H](O)[C@@H](O)[C@H](O)C1`, > 4 mM (inactive).
`C[C@@H]1CC[C@@]23CCC4(C)[C@@](C=CC5[C@@]6(C)CCC(=O)C(C)(C)C6CC[C@]54C)(OC2=O)C3[C@H]1C` (stereo partly drawn): the Kd is > 4 mM (inactive).
The same measure for `CC(=O)Nc1ccc2c(c1)n(C)c(=O)n2C`: > 4 mM (inactive); for `Cc1sc2nc(SCC(=O)N(C)C)[nH]c(=O)c2c1C`: > 4 mM (inactive).
The same measure for `CN(C)C1CCS(=O)(=O)C1` (stereo not drawn): > 4 mM (inactive); for `Cc1ccc(C(O)c2nccn2C)o1` (stereo not drawn): > 4 mM (inactive); for `NCc1ccc2sccc2c1`: > 4 mM (inactive).
On to `O=C(O)c1ccc2[nH]c3c(c2c1)CSCC3`, for which the Kd was > 4 mM (inactive).
The same measure for `O=c1ccc2nc3ccccc3c(=O)n2[nH]1`: > 4 mM (inactive).
The same measure for `Cc1nnc(NCCN2CCOCC2)[nH]c1=O`: > 4 mM (inactive); for `Cc1cc(N)n(-c2ccccc2)n1`: > 4 mM (inactive).

The values above are taken from PubChem BioAssay AID1549 (Sanford-Burnham Center for Chemical Genomics, 2009).
